target: T1, human capsaicin receptor (Homo sapiens, UniProt Q8NER1); assay: Calcium mobilization assay, determination of antagonist activity (Example 6); format: cell-based; conditions: Table I; IC50 determined as described in Example 6; read-out: IC50
T1 construct: expressed in transfected cells
Procedure: A cDNA encoding full length human capsaicin receptor (SEQ ID NO:1, 2 or 3 of U.S. Pat. No. 6,482,611) is subcloned in the plasmid pBK-CMV (Stratagene, La Jolla, Calif.) for recombinant expression in mammalian cells.
Human embryonic kidney (HEK293) cells are transfected with the pBK-CMV expression construct encoding the full length human capsaicin receptor using standard methods. The transfected cells are selected for two weeks in media containing G418 (400 μg/ml) to obtain a pool of stably transfected cells. Independent clones are isolated from this pool by limiting dilution to obtain clonal stable cell lines for use in subsequent experiments.
This Example illustrates representative calcium mobilization assays for use in evaluating test compounds for agonist and antagonist activity.
Cells transfected with expression plasmids (as described in Example 4) and thereby expressing human capsaicin receptor are seeded and grown to 70-90% confluency in FALCON black-walled, clear-bottomed 96-well plates (#3904, BECTON-DICKINSON, Franklin Lakes, N.J.). The culture medium is emptied from the 96 well plates and FLUO-3 AM calcium sensitive dye (Molecular Probes, Eugene, Oreg.) is added to each well (dye solution: 1 mg FLUO-3 AM, 440 μL DMSO and 440 μl 20% pluronic acid in DMSO, diluted 1:250 in Krebs-Ringer HEPES (KRH) buffer (25 mM HEPES, 5 mM KCl, 0.96 mM NaH2PO4, 1 mM MgSO4, 2 mM CaCl2, 5 mM glucose, 1 mM probenecid, pH 7.4), 50 μl diluted solution per well). Plates are covered with aluminum foil and incubated at 37° C. for 1-2 hours in an environment containing 5% CO2. After the incubation, the dye is emptied from the plates, and the cells are washed once with KRH buffer, and resuspended in KRH buffer.
To measure the ability of a test compound to agonize or antagonize a calcium mobilization response in cells expressing capsaicin receptors to capsaicin or other vanilloid agonist, the EC50 of the agonist capsaicin is first determined. An additional 20 μl of KRH buffer and 1 μl DMSO is added to each well of cells, prepared as described above. 100 μl capsaicin in KRH buffer is automatically transferred by the FLIPR instrument to each well. Capsaicin-induced calcium mobilization is monitored using either FLUOROSKAN ASCENT (Labsystems; Franklin, Mass.) or FLIPR (fluorometric imaging plate reader system; Molecular Devices, Sunnyvale, Calif.) instruments. Data obtained between 30 and 60 seconds after agonist application are used to generate an 8-point concentration response curve, with final capsaicin concentrations of 1 nM to 3 μM. KALEIDAGRAPH software (Synergy Software, Reading, Pa.) is used to fit the data to the equation: y=a*(1/(1+(b/x)^c)) to determine the 50% excitatory concentration (EC50) for the response. In this equation, y is the maximum fluorescence signal, x is the concentration of the agonist or antagonist (in this case, capsaicin), a is the Emax, b corresponds to the EC50 value and c is the Hill coefficient. Determination of Agonist Activity
Test compounds are dissolved in DMSO, diluted in 20 μl KRH buffer so that the final concentration of test compounds in the assay well is between 1 μM and 5 μM, and added to cells prepared as described above. The 96 well plates containing prepared cells and test compounds are incubated in the dark, at room temperature for 0.5 to 6 hours. It is important that the incubation not continue beyond 6 hours. Just prior to determining the fluorescence response, 100 μl capsaicin in KRH buffer at twice the EC50 concentration determined as described above is automatically added by the FLIPR instrument to each well of the 96 well plate for a final sample volume of 200 μl and a final capsaicin concentration equal to the EC50. The final concentration of test compounds in the assay wells is between 1 μM and 5 μM. […]

T1 sequence (Q8NER1 whole entry): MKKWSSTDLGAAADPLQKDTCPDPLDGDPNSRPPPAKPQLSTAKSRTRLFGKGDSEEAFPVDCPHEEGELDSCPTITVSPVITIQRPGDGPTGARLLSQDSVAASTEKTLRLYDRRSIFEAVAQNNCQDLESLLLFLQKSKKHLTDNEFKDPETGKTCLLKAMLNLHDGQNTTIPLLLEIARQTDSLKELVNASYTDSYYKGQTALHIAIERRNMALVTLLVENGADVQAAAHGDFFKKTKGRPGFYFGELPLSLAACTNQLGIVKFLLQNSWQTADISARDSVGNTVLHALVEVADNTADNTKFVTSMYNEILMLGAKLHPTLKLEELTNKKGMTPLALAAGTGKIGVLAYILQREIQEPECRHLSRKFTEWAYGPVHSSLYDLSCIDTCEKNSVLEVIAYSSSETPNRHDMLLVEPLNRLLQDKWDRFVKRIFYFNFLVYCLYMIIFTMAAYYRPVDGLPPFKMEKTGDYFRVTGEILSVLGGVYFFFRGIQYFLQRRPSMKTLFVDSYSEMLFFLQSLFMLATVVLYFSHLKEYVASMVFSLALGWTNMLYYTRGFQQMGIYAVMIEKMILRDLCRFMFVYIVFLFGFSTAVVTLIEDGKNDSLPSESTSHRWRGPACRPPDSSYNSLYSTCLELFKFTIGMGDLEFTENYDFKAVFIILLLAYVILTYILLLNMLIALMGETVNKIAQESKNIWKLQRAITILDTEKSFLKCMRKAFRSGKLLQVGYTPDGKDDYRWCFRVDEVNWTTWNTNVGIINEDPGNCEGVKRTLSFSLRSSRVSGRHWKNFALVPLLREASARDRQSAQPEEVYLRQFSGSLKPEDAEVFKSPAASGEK

IC50, < 1000 nM:
C=CCN(C)c1cc(C(F)(F)F)c(-c2cnc3c(Nc4ccc(C(F)(F)F)cn4)ccnc3n2)nn1 [compound 141, 3-{6-[allyl(methyl)amino]-4-(trifluoromethyl)pyridazin-3-yl}-N-[5-(trifluoromethyl)-pyridin-2-yl]pyrido[2,3-b]pyrazin-8-amine]
CCOc1nc(Nc2ccnc3nc(-c4ccc(C(N)=O)cc4C(F)(F)F)cnc23)ccc1C(F)(F)F [compound 43, 4-(8-{[6-ethoxy-5-(trifluoromethyl)pyridin-2-yl]amino}pyrido[2,3-b]pyrazin-3-yl)-3-(trifluoromethyl)benzamide]
O=C(O)c1cnc(-c2ccc3c(Nc4ccc(C(F)(F)F)cn4)ccnc3n2)c(C(F)(F)F)c1 [compound 22, 5-Trifluoromethyl-6-[5-(5-trifluoromethyl-pyridin-2-ylamino)-[1,8]naphthyridin-2-yl]-nicotinic acid]
CCOc1nc(Nc2ccnc3nc(-c4ncc(C(N)=O)cc4C(F)(F)F)cnc23)ccc1C(F)(F)F [compound 48, 6-(8-{[6-ethoxy-5-(trifluoromethyl)pyridin-2-yl]amino}pyrido[2,3-b]pyrazin-3-yl)-5-(trifluoromethyl)nicotinamide]
FC(F)(F)c1ccc(Nc2ccnc3nc(-c4ncc(Br)cc4C(F)(F)F)cnc23)nc1 [compound 31, [3-(5-Bromo-3-trifluoromethyl-pyridin-2-yl)-pyrido[2,3-b]pyrazin-8-yl]-(5-trifluoromethyl-pyridin-2-yl)-amine]
CCOc1nc(Nc2ccnc3nc(-c4ccc(C(=O)O)cc4C(F)(F)F)cnc23)ccc1C(F)(F)F [compound 44, 4-(8-{[6-ethoxy-5-(trifluoromethyl)pyridin-2-yl]amino}pyrido[2,3-b]pyrazin-3-yl)-3-(trifluoromethyl)benzoic acid]
C[C@@H](O)CNc1cc(C(F)(F)F)c(-c2cnc3c(Nc4ccc(C(F)(F)F)cn4)ccnc3n2)nn1 [compound 125, (R)-1-{[5-(trifluoromethyl)-6-(8-{[5-(trifluoromethyl)-pyridin-2-yl]amino}-pyrido[2,3-b]pyrazin-3-yl)pyridazin-3-yl]amino}propan-2-ol]
CC(C)CNc1cc(C(F)(F)F)c(-c2cnc3c(Nc4ccc(C(F)(F)F)cn4)ccnc3n2)nn1 [compound 99, 3-[6-(isobutylamino)-4-(trifluoromethyl)pyridazin-3-yl]-N-[5-(trifluoromethyl)-pyridin-2-yl]pyrido[2,3-b]pyrazin-8-amine]
CN(C)CCCN(C)c1cc(C(F)(F)F)c(-c2cnc3c(Nc4ccc(C(F)(F)F)cn4)ccnc3n2)nn1 [compound 88, N,N,N′-trimethyl-N′-[5-(trifluoromethyl)-6-(8-{[5-(trifluoromethyl)pyridin-2-yl]amino}pyrido[2,3-b]pyrazin-3-yl)pyridazin-3-yl]propane-1,3-diamine]
C=CCN(CC=C)c1cc(C(F)(F)F)c(-c2cnc3c(Nc4ccc(C(F)(F)F)cn4)ccnc3n2)nn1 [compound 150, 3-[6-(diallylamino)-4-(trifluoromethyl)pyridazin-3-yl]-N-[5-(trifluoromethyl)-pyridin-2-yl]pyrido[2,3-b]pyrazin-8-amine]
NC(=O)c1ccc(-c2cnc3c(Nc4ccc(C(F)(F)F)cn4)ccnc3n2)c(C(F)(F)F)c1 [compound 37, 3-(trifluoromethyl)-4-(8-{[5-(trifluoromethyl)pyridin-2-yl]amino}pyrido[2,3-b]pyrazin-3-yl)benzamide]
NC(=O)c1cnc(-c2cnc3c(Nc4cnc5ccccc5n4)ccnc3n2)c(C(F)(F)F)c1 [compound 35, 6-[8-(quinoxalin-2-ylamino)pyrido[2,3-b]pyrazin-3-yl]-5-(trifluoromethyl)nicotinamide]
CCN(C)CCN(CC)c1cc(C(F)(F)F)c(-c2cnc3c(Nc4ccc(C(F)(F)F)cn4)ccnc3n2)nn1 [compound 91, N,N′-diethyl-N-methyl-N′-[5-(trifluoromethyl)-6-(8-{[5-(trifluoromethyl)pyridin-2-yl]amino}pyrido[2,3-b]pyrazin-3-yl)pyridazin-3-yl]ethane-1,2-diamine]
O=C(O)c1ccc(-c2cnc3c(Nc4ccc(C(F)(F)F)cn4)ccnc3n2)c(C(F)(F)F)c1 [compound 38, 3-(trifluoromethyl)-4-(8-{[5-(trifluoromethyl)pyridin-2-yl]amino}pyrido[2,3-b]pyrazin-3-yl)benzoic acid]
CCN(CC)C1CCN(c2cc(C(F)(F)F)c(-c3cnc4c(Nc5ccc(C(F)(F)F)cn5)ccnc4n3)nn2)CC1 [compound 80]
O=C(O)c1cnc(-c2cnc3c(Nc4ccc(C(F)(F)F)cn4)ccnc3n2)c(C(F)(F)F)c1 [compound 33, 5-(trifluoromethyl)-6-(8-{[5-(trifluoromethyl)-2-pyridinyl]amino}pyrido[2,3-b]pyrazin-3-yl)nicotinic acid]
CCCCN(CC)c1cc(C(F)(F)F)c(-c2cnc3c(Nc4ccc(C(F)(F)F)cn4)ccnc3n2)nn1 [compound 152, 3-{6-[butyl(ethyl)amino]-4-(trifluoromethyl)pyridazin-3-yl}-N-[5-(trifluoromethyl)-pyridin-2-yl]pyrido[2,3-b]pyrazin-8-amine]
CC(=O)c1ccc(C(F)(F)F)c(-c2ccc3c(Nc4ccc(C(F)(F)F)cn4)ccnc3n2)n1 [compound 29, 1-{5-Trifluoromethyl-6-[5-(5-trifluoromethyl-pyridin-2-ylamino)-[1,8]naphthyridin-2-yl]-pyridin-2-yl}-ethanone]
CCCCN(C)CCNc1cc(C(F)(F)F)c(-c2cnc3c(Nc4ccc(C(F)(F)F)cn4)ccnc3n2)nn1 [compound 70, N-butyl-N-methyl-N′-[5-(trifluoromethyl)-6-(8-{[5-(trifluoromethyl)pyridin-2-yl]amino}pyrido[2,3-b]pyrazin-3-yl)pyridazin-3-yl]ethane-1,2-diamine]
CC(C)N1CCN(c2cc(C(F)(F)F)c(-c3cnc4c(Nc5ccc(C(F)(F)F)cn5)ccnc4n3)nn2)CC1 [compound 75, 3-[6-(4-isopropylpiperazin-1-yl)-4-(trifluoromethyl)-pyridazin-3-yl]-N-[5-(trifluoromethyl)pyridin-2-yl]pyrido[2,3-b]pyrazin-8-amine]
CC(C)N(CCNc1cc(C(F)(F)F)c(-c2cnc3c(Nc4ccc(C(F)(F)F)cn4)ccnc3n2)nn1)C(C)C [compound 66, N,N-diisopropyl-N′-[5-(trifluoromethyl)-6-(8-{[5-(trifluoromethyl)pyridin-2-yl]amino}pyrido[2,3-b]pyrazin-3-yl)pyridazin-3-yl]ethane-1,2-diamine]

same assay, conditions: cells expressing human capsaicin receptor; capsaicin at EC50; read-out: IC50 determined as described in Example 6

IC50, < 1000 nM:
FC(F)(F)c1ccc(Nc2ccnc3nc(-c4nnc(NCc5cccnc5)cc4C(F)(F)F)cnc23)nc1 [Compound 20]
NC(=O)c1cnc(-c2cnc3c(Nc4ccc(C(F)(F)F)cn4)ccnc3n2)c(C(F)(F)F)c1 [Compound 4, 5-Trifluoromethyl-6-[8-(5-trifluoromethyl-pyridin-2-ylamino)-pyrido[2,3-b]pyrazin-3-yl]-nicotinamide]
CCOc1cc(C(F)(F)F)c(-c2cnc3c(Nc4ccc(C(F)(F)F)cn4)ccnc3n2)nn1 [Compound 16]
FC(F)(F)c1ccc(Nc2ccnc3nc(-c4ncc(Br)cc4C(F)(F)F)cnc23)nc1 [Compound 10, 3-(5-Bromo-3-(trifluoromethyl)pyridin-2-yl)-N-(5-(trifluoromethyl)pyridin-2-yl)pyrido[2,3-b]pyrazin-8-amine]
